In DBAASP:
≈ marks a conversion by molar mass, not a printed value.

Tests used:
Test in all cases: ≥ marks a high value that may be exact or a test limit, other limits are often not marked, values filed in µg/mL are converted to µM
[1] = tested on: Pseudomonas aeruginosa H1001
[2] = tested on: Micrococcus luteus ATCC 4698
[3] = tested on: Escherichia coli DH5alpha
[4] = tested on: Staphylococcus aureus ATCC 6538
[5] = tested on: Staphylococcus epidermidis ATCC 12228
[6] = tested on: Klebsiella pneumoniae ATCC 10031
[7] = tested on: Bacillus subtilis ATCC 6633
[8] = tested on: Pseudomonas aeruginosa ATCC 27853
[9] = tested on: Escherichia coli ATCC 25922
[10] = tested on: Staphylococcus aureus ATCC 6538P
[11] = tested on: Salmonella enterica subsp. enterica serovar Typhimurium ATCC 14028
[12] = tested on: Shigella dysenteriae ATCC 9752
[13] = tested on: Micrococcus luteus ATCC 10240
[14] = tested on: Escherichia coli W160-37
[15] = tested on: Staphylococcus aureus ATCC 29213
[16] = tested on: Staphylococcus aureus
[17] = tested on: Staphylococcus aureus MR
[18] = tested on: Acinetobacter baumannii
[19] = tested on: Escherichia coli
[20] = tested on: Acinetobacter baumannii ATCC 19606
[21] = tested on: Pseudomonas aeruginosa
[22] = tested on: Klebsiella pneumoniae ATCC 13883
[23] = tested on: Klebsiella pneumoniae
[24] = tested on: Escherichia coli JM109

## CC[C@H](C)[C@H](NC(=O)[C@H](C)N)C(=O)N[C@@H](CCCCN)C(=O)N[C@@H](CC(C)C)C(=O)N[C@@H](CC(C)C)C(=O)N[C@@H](CS)C(=O)N[C@@H](CCCN=C(N)N)C(=O)N[C@H](C(=O)N[C@@H](Cc1cnc[nH]1)C(=O)N[C@@H](CCCCN)C(=O)O)C(C)C [AIKLLCRVHK]
[1]
  MIC: ≥ 42.4 µM

## CC[C@H](C)[C@H](NC(=O)[C@H](C)NC(=O)[C@@H](NC(=O)[C@H](CCCCN)NC(=O)[C@H](CCCCN)NC(=O)[C@H](Cc1cnc[nH]1)NC(=O)[C@@H](NC(=O)[C@H](CCCN=C(N)N)NC(=O)[C@@H](N)CS)C(C)C)[C@@H](C)CC)C(=O)N[C@@H](CO)C(=O)O [CRVHKKIAIS]
[1]
  MIC: ≥ 173 µM

## CC(C)C[C@H](NC(=O)[C@H](CC(C)C)NC(=O)[C@H](CCCCN)NC(=O)[C@H](CO)NC(=O)[C@H](CC(C)C)NC(=O)[C@H](C)NC(=O)[C@H](CCCCN)NC(=O)[C@H](C)NC(=O)[C@H](CC(C)C)NC(=O)[C@H](C)NC(=O)CNC(=O)[C@H](CC(C)C)NC(=O)[C@@H](N)Cc1ccccc1)C(=O)O [FLGALAKALSKLL]
[2]
  MIC: 11.9 µM (≈ 16 µg/mL)
[3]
  MIC: ≥ 74.4 µM
[4]
  MIC: 20.8 µM (≈ 28 µg/mL)
[5]
  MIC: 35.7 µM (≈ 48 µg/mL)

## CC(C)C[C@H](NC(=O)[C@@H](NC(=O)[C@H](CCCCN)NC(=O)[C@H](CO)NC(=O)[C@H](CC(C)C)NC(=O)[C@H](C)NC(=O)[C@H](CCCCN)NC(=O)[C@H](Cc1ccccc1)NC(=O)[C@H](CC(C)C)NC(=O)[C@H](C)NC(=O)CNC(=O)[C@H](CC(C)C)NC(=O)[C@@H](N)Cc1ccccc1)C(C)C)C(=O)O [FLGALFKALSKVL]
[2]
  MIC: 5.69 µM (≈ 8 µg/mL)
[3]
  MIC: 28.4 µM (≈ 40 µg/mL)
[4]
  MIC: 9.24 µM (≈ 13 µg/mL)
[5]
  MIC: 11.4 µM (≈ 16 µg/mL)

## CC(C)C[C@H](NC(=O)[C@H](Cc1c[nH]c2ccccc12)NC(=O)CNC(=O)[C@H](CC(C)C)NC(=O)[C@@H](N)Cc1ccccc1)C(=O)N[C@@H](Cc1ccccc1)C(=O)N[C@@H](CCCCN)C(=O)N[C@@H](Cc1c[nH]c2ccccc12)C(=O)N[C@@H](C)C(=O)N[C@@H](CCCCN)C(=O)N[C@@H](CCCCN)C(N)=O [FLGWLFKWAKK]
[6]
  MIC: 8.78 µM (≈ 12.5 µg/mL)
[7]
  MIC: 4.42 µM (≈ 6.3 µg/mL)
[8]
  MIC: 17.6 µM (≈ 25 µg/mL)
[9]
  MIC: 8.78 µM (≈ 12.5 µg/mL)
[10]
  MIC: 8.78 µM (≈ 12.5 µg/mL)
[5]
  MIC: 4.42 µM (≈ 6.3 µg/mL)
[11]
  MIC: 35.1 µM (≈ 50 µg/mL)
[12]
  MIC: 17.6 µM (≈ 25 µg/mL)
[13]
  MIC: 2.18 µM (≈ 3.1 µg/mL)

## CC[C@H](C)[C@H](NC(=O)[C@H](CCCCN)NC(=O)[C@H](CCCN=C(N)N)NC(=O)[C@@H]1CCCN1C(=O)[C@@H](NC(=O)[C@H](CC(C)C)NC(=O)[C@H](CC(C)C)NC(=O)[C@H](CC(C)C)NC(=O)[C@@H](N)Cc1ccccc1)[C@@H](C)CC)C(=O)N[C@H](C(=O)N[C@H](C(=O)N[C@@H](C)C(=O)N[C@@H](CC(C)C)C(N)=O)[C@@H](C)O)C(C)C [FLLLIPRKIVTAL]
[14]
  MIC: ≥ 93.5 µM

## CC(C)C[C@H](NC(=O)[C@@H](N)Cc1ccccc1)C(=O)N1CCC[C@H]1C(=O)N[C@@H](CCCCN)C(=O)N[C@@H](CCCCN)C(=O)N[C@@H](Cc1ccccc1)C(=O)N[C@@H](CCCN=C(N)N)C(=O)N[C@@H](Cc1c[nH]c2ccccc12)C(=O)N[C@@H](Cc1c[nH]c2ccccc12)C(=O)N[C@@H](CCCCN)C(=O)N[C@@H](Cc1ccc(O)cc1)C(=O)N[C@@H](CCCN=C(N)N)C(=O)N[C@@H](CCCCN)C(N)=O [FLPKKFRWWKYRK]
[1]
  MIC: 8.5 µM (≈ 16 µg/mL)

## CC[C@H](C)[C@H](NC(=O)CN)C(=O)N[C@@H](CCCCN)C(=O)N[C@@H](CCCCN)C(=O)N[C@@H](Cc1c[nH]c2ccccc12)C(=O)N[C@H](C(=O)N[C@@H](CCCCN)C(=O)NCC(=O)N[C@H](C(=O)N[C@@H](C)C(=O)N[C@@H](CCCCN)C(=O)NCC(=O)N[C@H](C(=O)N[C@@H](C)C(=O)N[C@@H](CCCCN)C(=O)N[C@@H](CC(=O)O)C(=O)N[C@@H](CC(C)C)C(=O)N[C@@H](C)C(=O)N[C@@H](CCCCN)C(=O)N[C@@H](CCCCN)C(=O)N[C@H](C(=O)N[C@@H](CC(C)C)C(N)=O)[C@@H](C)CC)C(C)C)C(C)C)C(C)C [GIKKWVKGVAKGVAKDLAKKIL]
[15]
  MIC: 0.354 µM (≈ 0.831 µg/mL)
[16]
  MIC: 1 µM (≈ 2.35 µg/mL)
[17]
  MIC: 4 µM (≈ 9.4 µg/mL)
[18]
  MIC: 0.707 µM (≈ 1.66 µg/mL)
[19]
  MIC: 0.25 µM (≈ 0.587 µg/mL)
[8]
  MIC: 2 µM (≈ 4.7 µg/mL)
[9]
  MIC: 0.177 µM (≈ 0.415 µg/mL)
[20]
  MIC: 0.707 µM (≈ 1.66 µg/mL)
[21]
  MIC: 2.83 µM (≈ 6.65 µg/mL)
[22]
  MIC: 0.707 µM (≈ 1.66 µg/mL)
[23]
  MIC: 2.83 µM (≈ 6.65 µg/mL)

## CC[C@H](C)[C@H](N)C(=O)N[C@H](C(=O)N[C@@H](CO)C(=O)N[C@H](C(=O)N[C@H](C(=O)NCC(=O)N[C@@H](CC(=O)O)C(=O)N[C@@H](CC(C)C)C(=O)N[C@H](C(=O)N[C@@H](CCCCN)C(=O)N[C@@H](Cc1c[nH]c2ccccc12)C(=O)N[C@H](C(=O)N[C@H](C(=O)N[C@@H](CCCCN)C(=O)N[C@H](C(=O)N[C@H](C(=O)O)C(C)C)[C@@H](C)O)[C@@H](C)CC)[C@@H](C)CC)C(C)C)[C@@H](C)CC)[C@@H](C)O)[C@@H](C)CC [IISTIGDLVKWIIKTV]
[14]
  MIC: ≥ 35 µM

## CC[C@H](C)[C@H](N)C(=O)N[C@H](C(=O)N[C@@H](CO)C(=O)N[C@H](C(=O)N[C@H](C(=O)NCC(=O)N[C@@H](CCCCN)C(=O)N[C@@H](CC(C)C)C(=O)N[C@H](C(=O)N[C@@H](CCCCN)C(=O)N[C@@H](Cc1c[nH]c2ccccc12)C(=O)N[C@H](C(=O)N[C@H](C(=O)N[C@@H](CCCCN)C(=O)N[C@H](C(=O)N[C@H](C(=O)O)C(C)C)[C@@H](C)O)[C@@H](C)CC)[C@@H](C)CC)C(C)C)[C@@H](C)CC)[C@@H](C)O)[C@@H](C)CC [IISTIGKLVKWIIKTV]
[16]
  MIC: 3.46 µM (≈ 6.28 µg/mL)
[14]
  MIC: 3 µM (≈ 5.44 µg/mL)

## CC[C@H](C)[C@H](NC(=O)[C@H](CCSC)NC(=O)[C@H](Cc1c[nH]c2ccccc12)NC(=O)[C@H](Cc1c[nH]c2ccccc12)NC(=O)[C@H](CC(C)C)NC(=O)[C@@H](N)CCCCN)C(=O)N[C@@H](CCCN=C(N)N)C(=O)N[C@@H](CCCN=C(N)N)C(=O)N[C@@H](Cc1c[nH]c2ccccc12)C(=O)O [KLWWMIRRW]
[1]
  MIC: 5.82 µM (≈ 8 µg/mL)

## CC[C@H](C)[C@H](NC(=O)[C@H](C)NC(=O)[C@H](CC(C)C)NC(=O)[C@H](CS)NC(=O)[C@H](Cc1cnc[nH]1)NC(=O)[C@H](C)NC(=O)[C@H](C)NC(=O)[C@H](CS)NC(=O)[C@@H](N)CC(C)C)C(=O)N[C@@H](CC(C)C)C(=O)N[C@@H](CCCN=C(N)N)C(=O)N[C@@H](CCCN=C(N)N)C(N)=O [LCAAHCLAILRR]
[16]
  MIC: 47.8 µM
[24]
  MIC: 17.9 µM
[10]
  MIC: 7.46 µM

## CC(C)C[C@@H]1NC(=O)[C@H](CCCN=C(N)N)NC(=O)[C@H](Cc2cnc[nH]2)NC(=O)[C@H](Cc2c[nH]c3ccccc23)NC(=O)CNC(=O)CNC(=O)[C@@H](NC(=O)[C@H](Cc2ccc(O)cc2)NC(=O)CNC(=O)CNC(=O)[C@@H](N)CO)CSSC[C@@H](C(=O)O)NC(=O)[C@H](CCCN=C(N)N)NC1=O [SGGYCGGWHRLRC]
[2]
  MIC: 17 µM (≈ 24.6 µg/mL)

## C[C@@H](O)[C@H](NC(=O)[C@@H]1CSSC[C@H](NC(=O)[C@H](Cc2ccc(O)cc2)NC(=O)CNC(=O)CNC(=O)[C@@H](N)CO)C(=O)NCC(=O)NCC(=O)N[C@@H](Cc2c[nH]c3ccccc23)C(=O)N[C@@H](CCCCN)C(=O)N[C@@H](CCCN=C(N)N)C(=O)N[C@@H](CCCCN)C(=O)N[C@@H](CCCN=C(N)N)C(=O)N1)C(=O)N[C@@H](CO)C(=O)N[C@@H](Cc1ccc(O)cc1)C(=O)N[C@@H](CCCN=C(N)N)C(=O)N[C@@H](CO)C(=O)NCC(=O)O [SGGYCGGWKRKRCTSYRSG]
[2]
  MIC: 12 µM (≈ 25.3 µg/mL)

## CC[C@H](C)[C@H](NC(=O)[C@H](CCCN=C(N)N)NC(=O)[C@H](CCCN=C(N)N)NC(=O)[C@@H]1CCCN1C(=O)[C@@H]1CCCN1C(=O)[C@H](CCCN=C(N)N)NC(=O)[C@@H]1CCCN1C(=O)[C@H](CCCN=C(N)N)NC(=O)[C@@H]1CCCN1C(=O)[C@H](CC(C)C)NC(=O)[C@H](Cc1ccc(O)cc1)NC(=O)[C@@H]1CCCN1C(=O)[C@@H]1CCCN1C(=O)[C@H](CCCCN)NC(=O)[C@H](CCCN=C(N)N)NC(=O)[C@@H](N)C(C)C)C(=O)N[C@@H](Cc1ccc(O)cc1)C(=O)N[C@@H](CC(N)=O)C(=O)N[C@@H](CCCN=C(N)N)C(=O)NCC(=O)O [VRKPPYLPRPRPPRRIYNRG]
[1]
  MIC: 0.0362 µM (≈ 0.0901 µg/mL)
